Data from the supplement of paper PMC10307832.

Tests used:
Experiment in all cases: relative viability (nuclei count vs DMSO), 5 days (fraction); higher = more cells survive
BEN = test system: BEN
In short: (§1)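 Values are medians from duplicate plates. Each reflects relative viability, defined as the nuclei count of treated wells over that of vehicle wells. Lung cancer cell lines in 1536-well plates were pin-tool dosed one day after seeding with one drug alone or with a fixed anchor-drug dose plus five library-drug doses (not always all listed) in √10 steps, then fixed, stained and imaged at 4× after 5 days.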

EKVX = test system: EKVX
In short: as §1

HARA = test system: HARA
In short: as §1

HCC-366 = test system: HCC-366
In short: as §1

HCC-827 = test system: HCC-827
In short: as §1

LC-2-ad = test system: LC-2-ad
In short: as §1

LOU-NH91 = test system: LOU-NH91
In short: as §1

NCI-H1355 = test system: NCI-H1355
In short: as §1

NCI-H1395 = test system: NCI-H1395
In short: as §1

NCI-H1437 = test system: NCI-H1437
In short: as §1

NCI-H1734 = test system: NCI-H1734
In short: as §1

NCI-H1792 = test system: NCI-H1792
In short: as §1

## Clc1ccc(Nc2nnc(Cc3ccncc3)c3ccccc23)cc1 [Vatalanib] + Cc1nc(Nc2ncc(C(=O)Nc3c(C)cccc3Cl)s2)cc(N2CCN(CCO)CC2)n1 [Dasatinib] (partner 0.075 µM)
BEN; first compound 0.04 µM
  relative viability: 0.308
BEN; first compound 0.1265 µM
  relative viability: 0.271
BEN; first compound 0.4 µM
  relative viability: 0.315
BEN; first compound 1.265 µM
  relative viability: 0.29
BEN; first compound 4 µM
  relative viability: 0.342
EKVX; first compound 0.04 µM
  relative viability: 0.651
EKVX; first compound 0.1265 µM
  relative viability: 0.5
EKVX; first compound 0.4 µM
  relative viability: 0.585
EKVX; first compound 1.265 µM
  relative viability: 0.397
EKVX; first compound 4 µM
  relative viability: 0.4
HARA; first compound 0.04 µM
  relative viability: 0.265
HARA; first compound 0.1265 µM
  relative viability: 0.214
HARA; first compound 0.4 µM
  relative viability: 0.284
HARA; first compound 1.265 µM
  relative viability: 0.212
HARA; first compound 4 µM
  relative viability: 0.248
HCC-366; first compound 0.04 µM
  relative viability: 0.829
HCC-366; first compound 0.1265 µM
  relative viability: 0.573
HCC-366; first compound 0.4 µM
  relative viability: 0.618
HCC-366; first compound 1.265 µM
  relative viability: 0.586
HCC-366; first compound 4 µM
  relative viability: 0.503
HCC-827; first compound 0.04 µM
  relative viability: 0.375
HCC-827; first compound 0.1265 µM
  relative viability: 0.31
HCC-827; first compound 0.4 µM
  relative viability: 0.166
HCC-827; first compound 1.265 µM
  relative viability: 0.326
HCC-827; first compound 4 µM
  relative viability: 0.275
LC-2-ad; first compound 0.04 µM
  relative viability: 0.739
LC-2-ad; first compound 0.1265 µM
  relative viability: 0.492
LC-2-ad; first compound 1.265 µM
  relative viability: 0.507
LC-2-ad; first compound 4 µM
  relative viability: 0.536
LOU-NH91; first compound 0.04 µM
  relative viability: 0.563
LOU-NH91; first compound 0.1265 µM
  relative viability: 0.534
LOU-NH91; first compound 1.265 µM
  relative viability: 0.514
LOU-NH91; first compound 4 µM
  relative viability: 0.509
NCI-H1355; first compound 0.04 µM
  relative viability: 0.75
NCI-H1355; first compound 0.1265 µM
  relative viability: 0.728
NCI-H1355; first compound 0.4 µM
  relative viability: 0.778
NCI-H1355; first compound 1.265 µM
  relative viability: 0.603
NCI-H1355; first compound 4 µM
  relative viability: 0.633
NCI-H1395; first compound 0.04 µM
  relative viability: 0.456
NCI-H1395; first compound 0.1265 µM
  relative viability: 0.392
NCI-H1395; first compound 0.4 µM
  relative viability: 0.384
NCI-H1395; first compound 1.265 µM
  relative viability: 0.389
NCI-H1395; first compound 4 µM
  relative viability: 0.407
NCI-H1437; first compound 0.04 µM
  relative viability: 0.399
NCI-H1437; first compound 0.1265 µM
  relative viability: 0.41
NCI-H1437; first compound 0.4 µM
  relative viability: 0.286
NCI-H1437; first compound 1.265 µM
  relative viability: 0.349
NCI-H1437; first compound 4 µM
  relative viability: 0.417
NCI-H1734; first compound 0.04 µM
  relative viability: 0.512
NCI-H1734; first compound 0.1265 µM
  relative viability: 0.432
NCI-H1734; first compound 0.4 µM
  relative viability: 0.501
NCI-H1734; first compound 1.265 µM
  relative viability: 0.47
NCI-H1734; first compound 4 µM
  relative viability: 0.422
NCI-H1792; first compound 0.04 µM
  relative viability: 0.724
NCI-H1792; first compound 0.1265 µM
  relative viability: 0.814
NCI-H1792; first compound 0.4 µM
  relative viability: 0.758
